The text below walks through data of the SangsterLogP compilation.

The first data set can be described thus: method code SF-HPLC, from Li, N. Y., Li, Y., & Gorrod, J. W. (1992). Determination of partition coefficients and ionisation constants of(S)(-)-nicotine and certain metabolites. Med. Sci. Res., 20(23)901-902. The following applies: pH 2.0.
For the molecule `O=C(O)Cc1cccnc1`, the logD – broadly, lipophilicity at a set pH, counting ionised and neutral species – was -2.42. On the same count and under the same terms, the result for `O=C(O)CCC(=O)c1cccnc1` reads -1.06.

The same data set, now with this note: pH 7.4.
On to `CNC(=O)CCC(=O)c1cccnc1`, for which the logD is -0.13. The same measure, in the same setting: for `CN1C(=O)C(O)CC1c1cccnc1` (centres undefined) the value was -1.22; for `CN1C(=O)CC[C@H]1c1cccnc1`, 0.07; for `CN1C(=O)CCC1c1ccc[n+]([O-])c1` (centres undefined), -2.54.

The same data set, now with this note: pH 12.0.
For the molecule `O=C1CCC(c2ccc[n+]([O-])c2)N1` (centres undefined), the pH-dependent lipophilicity (logD) was -1.01.

In the case of `O=C1CC[C@@H](c2cccnc2)N1`, the logD was -0.4. Same read-out and setting: for `CN1C(=O)CCC1(O)c1cccnc1` (centres undefined) the value was -0.57.
